pIC50: −log10 of the molar value. Where a name gives a salt, the structure may show the parent alone.
Biological target: T1, human neutrophil elastase (Homo sapiens, UniProt P08246)
T1 sequence (P08246 30-267): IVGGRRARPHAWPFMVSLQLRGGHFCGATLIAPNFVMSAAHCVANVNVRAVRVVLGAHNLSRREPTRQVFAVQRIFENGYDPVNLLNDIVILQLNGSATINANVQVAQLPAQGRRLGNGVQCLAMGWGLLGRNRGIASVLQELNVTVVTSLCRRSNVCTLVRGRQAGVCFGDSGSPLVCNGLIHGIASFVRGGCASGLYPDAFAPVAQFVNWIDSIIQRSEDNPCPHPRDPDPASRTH
Test: In vitro assay of human neutrophil elastase (HNE)
Type: biochemical
Conditions: 118 nM purified human neutrophil elastase, pH 8.6, 15 min incubation at 30° C., MeO-succinyl-alanyl-alanyl-prolyl-valyl-p-nitroanilide substrate; read-out: HNE IC50
Protocol: In Vitro Assays of Human Neutrophil Elastase
118 nM purified human neutrophil elastase
Suitable concentrations of compound under test diluted with water from a 10 mM stock solution in dimethylsulphoxide. Values above are final concentrations after the addition of substrate solution (see below).
The mixture above is incubated for fifteen minutes at 30° C. at which time the remaining elastase activity is measured for 10 minutes in a BioTek 340i plate-reader, after the addition of 0.6 mM MeO-succinyl-alanyl-alanyl-prolyl-valyl-p-nitroanilide. The rate of increase in absorbance at 405 nm is proportional to elastase activity. Enzyme activity is plotted against concentration of inhibitor and an IC50 determined using curve fitting software.
1. The compounds were tested in the in vitro elastase test described earlier in the description.

| Structure (SMILES) | pIC50 |
| --- | --- |
| CCC[C@H]1C(=O)N(S(=O)(=O)c2ccc3ccccc3c2)[C@H]2CCN(S(=O)(=O)CCCN3CCCCC3)[C@H]12 (relative stereo) [Example 13, rel-(3R,3aR,6aS)-1-(Naphthalene-2-sulfonyl)-(3-piperidin-1-yl-propane-1-sulfonyl)-3-propyl-hexahydro-pyrrolo[3,2-b]pyrrol-2-one] | 6.27 |
| CCC[C@H]1C(=O)N(S(C)(=O)=O)[C@H]2CCN(S(=O)(=O)c3ccc(C(=O)O)cc3)[C@@H]12 (relative stereo) [Example 122, rel-(3aS,6R,6aS)-4-(4-Methanesulfonyl-5-oxo-6-propyl-hexahydro-pyrrolo[3,2-b]pyrrole-1-sulfonyl)-benzoic acid] | 8.40 |
| CCC[C@H]1C(=O)N(S(C)(=O)=O)[C@H]2CCN(C(=O)CCCCCCCCCN(C)C)[C@H]12 (relative stereo) [Example 67, rel-(3R,3aR,6aS)-4-(10-Dimethylamino-decanoyl)-1-methanesulfonyl-3-propyl-hexahydro-pyrrolo[3,2-b]pyrrol-2-one DL-tartrate] | 7.37 |
| CCC[C@H]1C(=O)N(S(C)(=O)=O)[C@H]2CCN(C(=O)/C=C/c3ccc(CN4CCCCC4)cc3)[C@H]12 (relative stereo) [Example 133, rel-(3R,3aR,6aS)-1-Methanesulfonyl-4-[3-(4-piperidin-1-ylmethyl-phenyl)-(E)-acryloyl]-3-propyl-hexahydro-pyrrolo[3,2-b]pyrrol-2-one hydrochloride] | 7.21 |
| CCC[C@H]1C(=O)N(S(C)(=O)=O)[C@H]2CCN(C(=O)CCN3CCC(C(N)=O)CC3)[C@H]12 (relative stereo) [Example 98, rel-(3R,3aR,6aS)-1-[3-(4-Methanesulfonyl-5-oxo-6-propyl-hexahydro-pyrrolo[3,2-b]pyrrol-1-yl)-3-oxo-propyl]-piperidine-4-carboxylic acid amide hydrochloride] | 6.80 |
| CCC[C@H]1C(=O)N(S(C)(=O)=O)[C@H]2CCN(S(=O)(=O)c3ccc(C(=O)N4CCN(C)CC4)cc3)[C@H]12 (relative stereo) [Example 127, rel-(3R,3aR,6aS)-1-Methanesulfonyl-4-[4-(4-methyl-piperazine-1-carbonyl)-benzenesulfonyl]-3-propyl-hexahydro-pyrrolo[3,2-b]pyrrol-2-one hydrochloride] | 7.40 |
| CCC[C@H]1C(=O)N(S(C)(=O)=O)[C@H]2CCN(C(=O)CCN3CCCCC3)[C@H]12 [Example 116, (3R,3aR,6aS)-1-Methanesulfonyl-4-(3-piperidin-1-yl-propionyl)-3-propyl-hexahydro-pyrrolo[3,2-b]pyrrol-2-one hydrochloride] | 6.38 |

Further lines, results first:

| pIC50 | Structure (SMILES) |
| --- | --- |
| 6.85 | CCC[C@H]1C(=O)N(S(C)(=O)=O)[C@H]2CCN(S(=O)(=O)c3ccc([N+](=O)[O-])cc3)[C@H]12 (relative stereo) [Example 211, rel-(3R,3aR,6aS)-1-Methanesulfonyl-4-(4-nitro-benzenesulfonyl)-3-propyl-hexahydro-pyrrolo[3,2-b]pyrrol-2-one] |
| 7.21 | CCC[C@H]1C(=O)N(S(C)(=O)=O)[C@H]2CCN(S(=O)(=O)c3cccc(C(F)(F)F)c3)[C@H]12 (relative stereo) [Example 223, rel-(3R,3aR,6aS)-1-Methanesulfonyl-3-propyl-4-(3-trifluoromethyl-benzenesulfonyl)-hexahydro-pyrrolo[3,2-b]pyrrol-2-one] |
| 7.22 | CCC[C@H]1C(=O)N(S(C)(=O)=O)[C@H]2CCN(S(=O)(=O)c3ccc(CN4CCCCC4)cc3)[C@H]12 (relative stereo) [Example 194, rel-(3R,3aR,6aS)-1-Methanesulfonyl-4-(4-piperidin-1-ylmethyl-benzenesulfonyl)-3-propyl-hexahydro-pyrrolo[3,2-b]pyrrol-2-one hydrochloride] |
| 6.99 | CCCCS(=O)(=O)N1C(=O)[C@H](CCC)[C@@H]2[C@@H]1CCN2C(=O)CCN1CCCCC1 (relative stereo) [Example 163, rel-(3R,3aR,6aS)-1-(Butane-1-sulfonyl)-4-(3-piperidin-1-yl-propionyl)-3-propyl-hexahydro-pyrrolo[3,2-b]pyrrol-2-one DL-tartrate] |
